Target: MLL1-ASH2L/RbBP5/WDR5/DPY30
Assay: Inhibition of recombinant human MLL1 complex (MLL1/Ash2L/RbBP5/WDR5/DPY-30) expressed in Escherichia coli Rosetta 2 (DE3) cells using H3 (1 to 21) peptide as substrate incubated for 1 hr in presence of 3[H] SAM by […] assay

IC50 [nM] | SMILES
119 | Nc1ncnc2c1ncn2[C@@H]1O[C@H](CN(CC[C@H](N)C(=O)O)CC2CN(Cc3coc4ccccc34)C2)[C@@H](O)[C@H]1O
138 | Nc1ncnc2c1ncn2[C@@H]1O[C@H](CN(CC[C@H](N)C(=O)O)CC2CN(CCC(c3ccccc3)c3ccccc3)C2)[C@@H](O)[C@H]1O
127 | Nc1ncnc2c1ncn2[C@@H]1O[C@H](CN(CC[C@H](N)C(=O)O)C2CC(NCCCC3CCCC3)C2)[C@@H](O)[C@H]1O (some centres undefined)
72.4 | CCCCN1CC(CN(CC[C@H](N)C(=O)O)C[C@H]2O[C@@H](n3cnc4c(N)ncnc43)[C@H](O)[C@@H]2O)C1
132 | Nc1ncnc2c1ncn2[C@@H]1O[C@H](CN(CC[C@H](N)C(=O)O)Cc2cn(CCc3ccccc3)nn2)[C@@H](O)[C@H]1O
15.2 | Nc1ncnc2c1ncn2[C@@H]1O[C@H](CN(CC[C@H](N)C(=O)O)CC2CN(Cc3ccsc3)C2)[C@@H](O)[C@H]1O
201 | Nc1ncnc2c1ncn2[C@@H]1O[C@H](CN(CCCNCCCc2ccccc2)CC[C@H](N)C(=O)O)[C@@H](O)[C@H]1O

The remaining lines, values behind:

SMILES | IC50 [nM]
Nc1ncnc2c1ncn2[C@@H]1O[C@H](CN(CC[C@H](N)C(=O)O)CC2CN(CCCc3ccccc3)C2)[C@@H](O)[C@H]1O | 29.6
Nc1ncnc2c1ncn2[C@@H]1O[C@H](CN(CC[C@H](N)C(=O)O)CC2CN(Cc3ccc(Cl)cc3)C2)[C@@H](O)[C@H]1O | 55.6
NCCN(CC[C@H](N)C(=O)O)C[C@H]1O[C@@H](n2cnc3c(N)ncnc32)[C@H](O)[C@@H]1O | 592
Nc1ncnc2c1ncn2[C@@H]1O[C@H](CN(CC[C@H](N)C(=O)O)C2CN(CCCC3CCCC3)C2)[C@@H](O)[C@H]1O | 234
Nc1ncnc2c1ncn2[C@@H]1O[C@H](CN(CC[C@H](N)C(=O)O)CC2CN(Cc3ccccc3Cl)C2)[C@@H](O)[C@H]1O | 150
Nc1ncnc2c1ncn2[C@@H]1O[C@H](CN(CC[C@H](N)C(=O)O)CC2CN(Cc3cccc(Cl)c3)C2)[C@@H](O)[C@H]1O | 99.5
Nc1ncnc2c1ncn2[C@@H]1O[C@H](CN(CC[C@H](N)C(=O)O)CC2CN(Cc3cccs3)C2)[C@@H](O)[C@H]1O | 66.5
Nc1ncnc2c1ncn2[C@@H]1O[C@H](CN(CC[C@H](N)C(=O)O)C2CC(CNCCCc3ccccc3)C2)[C@@H](O)[C@H]1O (some centres undefined) | 451
Nc1ncnc2c1ncn2[C@@H]1O[C@H](CN(CC[C@H](N)C(=O)O)CC2CN(CCCC3CCCC3)C2)[C@@H](O)[C@H]1O | 25.5
Nc1ncnc2c1ncn2[C@@H]1O[C@H](CN(CC[C@H](N)C(=O)O)CC2CN(Cc3ccoc3)C2)[C@@H](O)[C@H]1O | 21.8
Nc1ncnc2c1ncn2[C@@H]1O[C@H](CN(CC[C@H](N)C(=O)O)CC2CN(Cc3ccccc3)C2)[C@@H](O)[C@H]1O | 46.8
Nc1ncnc2c1ncn2[C@@H]1O[C@H](CSCC[C@H](N)C(=O)O)[C@@H](O)[C@H]1O [S-ADENOSYLHOMOCYSTEINE] | 724

Reference: ChEMBL document CHEMBL4616718, “Discovery of Potent Small-Molecule Inhibitors of MLL Methyltransferase” (ACS Med Chem Lett, 2020)
